Assays:
[1] = test system: HL-60, human proleukemia cells; test: Cell-MTS proliferation assay, HL-60; format: cell-based; conditions: Homo sapiens, 168 hr
Procedure, shortened: (§1)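 Seed: Raji 15,000, HL-60 5,000, NCI-H460 3,000 cells/96-well. +24 hr: 11-pt compound dilution, 100 μM–2.0 nM final. 7 d culture, MTS reagent, read OD490; IC50 vs DMSO, background subtracted.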

BRD4(BD1) = BRD4(BD1) (Homo sapiens (Human), UniProt O60885); test: In vitro enzyme inhibition assay (BRD4 AlphaScreen); format: binding
Procedure, shortened: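 His-tagged BRD4 tested by AlphaScreen for binding of biotinylated H4K5/8/12/16-tetraacetyl peptide. After 20 min at room temperature, streptavidin donor and nickel chelate acceptor beads added (5 μg/mL final each). IC50 determined.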

[2] = test system: NCI-H460, human non-small cell lung cancer cells; test: Cell-MTS proliferation assay, NCI-H460; format: cell-based; conditions: Homo sapiens, 168 hr
Procedure, shortened: as §1

[3] = test system: Raji, human Burkitts lymphoma cells; test: Cell-MTS proliferation assay, Raji; format: cell-based; conditions: Homo sapiens, 168 hr
Procedure, shortened: as §1

[4] = in vitro enzyme inhibition assay
[5] = NCI-H460, Cell-MTS proliferation
[6] = Cell-MTS proliferation, HL-60 cells
[7] = Cell-MTS proliferation, NCI-H460 cells
[8] = Cell-MTS proliferation, Raji cells
[9] = HL-60, Cell-MTS, class symbols A/B/C
[10] = NCI-H460, Cell-MTS, class symbols A/B/C
[11] = Raji, Cell-MTS, class symbols A/B/C

| Structure (SMILES) | IC50 ([1]; HL-60, Cell-MTS proliferation) | IC50 (BRD4(BD1); [4]) | IC50 [2, 5] | IC50 ([3]; Raji, Cell-MTS proliferation) | IC50 [1, 6] | IC50 [2, 7] | IC50 [3, 8] | IC50 [1, 9] | IC50 (BRD4(BD1); class symbols A/B/C) | IC50 [2, 10] | IC50 [3, 11] |
| --- | --- | --- | --- | --- | --- | --- | --- | --- | --- | --- | --- |
| Cc1cc(-c2cc(S(C)(=O)=O)ccc2OCC2CC2)cn(CC2COC2)c1=O [Example 245, 5-[2-(cyclopropylmethoxy)-5-methylsulfonylphenyl]-3-methyl-1-(oxetan-3-ylmethyl)pyridin-2-one] | > 5000 nM | 500 to 5000 nM | > 5000 nM | > 5000 nM |  |  |  |  |  |  |  |
| Cn1cc(-c2cn(CS(C)(=O)=O)c(=O)cc2OCC2CC2)ccc1=O [Example 381, 4-(cyclopropylmethoxy)-5-(1-methyl-6-oxopyridin-3-yl)-1-(methylsulfonylmethyl)pyridin-2-one] |  | < 500 nM |  |  | 500 to 5000 nM | > 5000 nM | > 5000 nM |  |  |  |  |
| Cc1cc(-c2cc(S(C)(=O)=O)ccc2OC2CCCC2)cn(C)c1=O [Example 419, 5-(2-cyclopentyloxy-5-methylsulfonylphenyl)-1,3-dimethylpyridin-2-one] |  | < 500 nM |  |  | < 500 nM | > 5000 nM | 500 to 5000 nM |  |  |  |  |
| Cn1cc(-c2cc(CS(C)(=O)=O)ccc2OCC(F)(F)F)c2ccoc2c1=O [Example 258, 6-methyl-4-[5-(methylsulfonylmethyl)-2-(2,2,2-trifluoroethoxy)phenyl]furo[2,3-c]pyridin-7-one] | < 500 nM | < 500 nM | 500 to 5000 nM | 500 to 5000 nM |  |  |  |  |  |  |  |
| CCS(=O)(=O)c1ccc(OCC2CC2)c(-c2cn(C)c(=O)c3occc23)c1 [Example 252, 4-[2-(cyclopropylmethoxy)-5-ethylsulfonylphenyl]-6-methylfuro[2,3-c]pyridine-7-one] | < 500 nM | < 500 nM | > 5000 nM | < 500 nM |  |  |  |  |  |  |  |
| CCS(=O)(=O)Nc1ccc(Oc2ccc(F)cc2F)c(-c2cc(C)c(=O)n(C)c2)c1 [Example 472, N-[4-(2,4-difluorophenoxy)-3-(1,5-dimethyl-6-oxopyridin-3-yl)phenyl]ethanesulfonamide] |  | < 500 nM |  |  | < 500 nM | > 5000 nM | < 500 nM |  |  |  |  |
| Cc1cnn(-c2ccc3c(=O)n(C)cc(-c4cc(S(C)(=O)=O)ccc4OCC4CC4)c3c2)c1 [Example 128, 4-[2-(cyclopropylmethoxy)-5-methylsulfonylphenyl]-2-methyl-6-(4-methylpyrazol-1-yl)isoquinolin-1-one] |  |  |  |  |  |  |  | < 500 nM | < 500 nM | > 5000 nM | < 500 nM |
| CCS(=O)(=O)Nc1ncc(Oc2ccc(F)cc2F)c(-c2cc(C)c(=O)n(C)c2)n1 [Example 169, N-[5-(2,4-difluorophenoxy)-4-(1,5-dimethyl-6-oxopyridin-3-yl)pyrimidin-2-yl]ethanesulfonamide] | < 500 nM | < 500 nM | > 5000 nM | < 500 nM |  |  |  |  |  |  |  |
| CCS(=O)(=O)Nc1ccc(Oc2ccc(F)cc2F)c(-c2cn(C)c(=O)c3ccoc23)c1 [Example 379, N-[4-(2,4-difluorophenoxy)-3-(5-methyl-4-oxofuro[3,2-c]pyridin-7-yl)phenyl] ethanesulfonamide] |  | < 500 nM |  |  | < 500 nM | > 5000 nM | < 500 nM |  |  |  |  |
| Cn1cc(-c2cc(S(N)(=O)=O)ccc2Oc2ccc(F)cc2F)ccc1=O [Example 118, 4-(2,4-difluorophenoxy)-3-(1-methyl-6-oxopyridin-3-yl)benzenesulfonamide] |  |  |  |  |  |  |  | < 500 nM | < 500 nM | > 5000 nM | < 500 nM |
| Cn1cc(-c2cc(S(N)(=O)=O)ccc2NCC2CC2)ccc1=O [Example 453, 4-(cyclopropylmethylamino)-3-(1-methyl-6-oxopyridin-3-yl)benzenesulfonamide] |  | > 5000 nM |  |  | > 5000 nM | > 5000 nM | > 5000 nM |  |  |  |  |
| Cn1cc(-c2cc(S(C)(=O)=O)ccc2OC2CCOC2)c2ccccc2c1=O (stereo not shown) [Example 175, 2-methyl-4-[5-methylsulfonyl-2-(oxolan-3-yloxy)phenyl]isoquinolin-1-one] | < 500 nM | < 500 nM | > 5000 nM | < 500 nM |  |  |  |  |  |  |  |
| Cc1cc(-c2cc(S(C)(=O)=O)cc3c2OC(C)C3)cn(C)c1=O (stereo not shown) [Example 486, 1,3-dimethyl-5-(2-methyl-5-methylsulfonyl-2,3-dihydro-1-benzofuran-7-yl)pyridin-2-one] |  | 500 to 5000 nM |  |  | 500 to 5000 nM | > 5000 nM | > 5000 nM |  |  |  |  |
| CCS(=O)(=O)c1ccc(OCC2CC2)c(-c2cn(C)c(=O)c3cnc(-c4cnn(C)c4)nc23)c1 [Example 226, 8-[2-(cyclopropylmethoxy)-5-ethylsulfonylphenyl]-6-methyl-2-(1-methylpyrazol-4-yl)pyrido[4,3-d]pyrimidin-5-one] | < 500 nM | < 500 nM | > 5000 nM | < 500 nM |  |  |  |  |  |  |  |
| Cn1cc(-c2cc(S(C)(=O)=O)ccc2OC2CCOCC2)c2ccccc2c1=O [Example 176, 2-methyl-4-[5-methylsulfonyl-2-(oxan-4-yloxy)phenyl]isoquinolin-1-one] | < 500 nM | < 500 nM | > 5000 nM | < 500 nM |  |  |  |  |  |  |  |
| Cc1cc(-c2cc(S(C)(=O)=O)ccc2NCC2CC2)cn(C)c1=O [Example 462, 5-[2-(cyclopropylmethylamino)-5-methylsulfonylphenyl]-1,3-dimethylpyridin-2-one] |  | < 500 nM |  |  | < 500 nM | > 5000 nM | < 500 nM |  |  |  |  |
| Cc1cc(-c2cc(S(C)(=O)=O)ccc2OCC2CC2)nn(C)c1=O [Example 136, 6-[2-(cyclopropylmethoxy)-5-methylsulfonylphenyl]-2,4-dimethylpyridazin-3-one] |  |  |  |  |  |  |  | 500 to 5000 nM | 500 to 5000 nM | > 5000 nM | > 5000 nM |
| CCOc1ccc(S(N)(=O)=O)cc1-c1ccc(=O)n(C)c1 [Example 117, 4-ethoxy-3-(1-methyl-6-oxopyridin-3-yl)benzenesulfonamide] |  |  |  |  |  |  |  | 500 to 5000 nM | < 500 nM | > 5000 nM | 500 to 5000 nM |
| Cn1cc(-c2cc(CS(C)(=O)=O)ccc2OCC(F)(F)F)cc(Cl)c1=O [Example 418, 3-chloro-1-methyl-5-[5-(methylsulfonylmethyl)-2-(2,2,2-trifluoroethoxy)phenyl]pyridin-2-one] |  | < 500 nM |  |  | < 500 nM | > 5000 nM | 500 to 5000 nM |  |  |  |  |
| Cc1cc(-c2cc(S(C)(=O)=O)ccc2Nc2ccc(F)cc2F)cn(C)c1=O [Example 398, 5-[2-(2,4-difluoroanilino)-5-methylsulfonylphenyl]-1,3-dimethylpyridin-2-one] |  | < 500 nM |  |  | < 500 nM | > 5000 nM | 500 to 5000 nM |  |  |  |  |
| Cc1cc(-c2cc(OCC3CC3)cc(S(C)(=O)=O)c2)cn(C)c1=O [Example 325, 5-[3-(cyclopropylmethoxy)-5-methylsulfonylphenyl]-1,3-dimethylpyridin-2-one] | 500 to 5000 nM | < 500 nM | > 5000 nM | 500 to 5000 nM |  |  |  |  |  |  |  |
| Cc1cc(-c2cc(NS(C)(=O)=O)ccc2O[C@H]2CC[C@H](O)CC2)cn(C)c1=O [Example 433, N-[3-(1,5-dimethyl-6-oxopyridin-3-yl)-4-(trans-4-hydroxycyclohexyl)oxyphenyl]methanesulfonamide] |  | < 500 nM |  |  | < 500 nM | > 5000 nM | < 500 nM |  |  |  |  |
| Cc1cc(-c2cc(NS(C)(=O)=O)ccc2OC2CCOCC2)cn(C)c1=O [Example 439, N-[3-(1,5-dimethyl-6-oxopyridin-3-yl)-4-(oxan-4-yloxy)phenyl] methanesulfonamide] |  | < 500 nM |  |  | < 500 nM | > 5000 nM | < 500 nM |  |  |  |  |
| CCS(=O)(=O)Nc1cnc(Oc2ccc(F)cc2F)c(-c2cn(C)c(=O)c3occc23)c1 [Example 256, N-[6-(2,4-difluorophenoxy)-5-(6-methyl-7-oxofuro[2,3-c]pyridin-4-yl)pyridine-3-yl]ethanesulfonamide] | < 500 nM | < 500 nM | > 5000 nM | < 500 nM |  |  |  |  |  |  |  |
| CCS(=O)(=O)Nc1ccc(OC2CCCOC2)c(-c2cc(C)c(=O)n(C)c2)c1 (stereo not shown) [Example 448, N-[3-(1,5-dimethyl-6-oxopyridin-3-yl)-4-(oxan-3-yloxy)phenyl]ethanesulfonamide] |  | < 500 nM |  |  | < 500 nM | > 5000 nM | < 500 nM |  |  |  |  |
| Cn1cc(-c2ccc3c(=O)n(C)cc(-c4nc(NS(C)(=O)=O)ncc4OCC4CC4)c3c2)cn1 [Example 154, N-[5-(cyclopropylmethoxy)-4-[2-methyl-6-(1-methylpyrazol-4-yl)-1-oxoisoquinolin-4-yl]pyrimidin-2-yl]methanesulfonamide] | < 500 nM | < 500 nM | > 5000 nM | < 500 nM |  |  |  |  |  |  |  |
| CCS(=O)(=O)Cc1ccc(Oc2ccc(F)cc2F)c(-c2cn(C)c(=O)c3cncn23)c1 [Example 369, 5-[2-(2,4-difluorophenoxy)-5-(ethylsulfonylmethyl)phenyl]-7-methylimidazo[1,5-a]pyrazin-8-one] | < 500 nM | < 500 nM | > 5000 nM | 500 to 5000 nM |  |  |  |  |  |  |  |
| Cc1cc(=O)n(C)cc1-c1cc(CS(C)(=O)=O)ccc1Oc1ccc(F)cc1F [Example 454, 5-[2-(2,4-difluorophenoxy)-5-(methylsulfonylmethyl)phenyl]-1,4-dimethylpyridin-2-one] |  | < 500 nM |  |  | < 500 nM | > 5000 nM | < 500 nM |  |  |  |  |

— US10023592B2, “Bromodomain inhibitors” (Celgene Quanticel Research, Inc., priority 2013, dated 2018)
